In PubChem BioAssay AID248 (DTP/NCI, 2004):
“And” between values parts separate entries of the source, which are not always exact repeats. Equal entries are not always repeated. Toxic doses and inconclusive results are not listed. Cut-off read from the data, not from the text of the source: active = T/C of 150% or more; inactive = T/C below 125%.

Tested on: L1210 leukemia ip in BDF1 mice, survival T/C
Test: NCI In Vivo Anticancer Drug Screen. Data for tumor model L1210 Leukemia (intraperitoneal) in B6D2F1 (BDF1) mice
Conditions: endpoint: mean survival time, higher = longer survival
Procedure, shortened: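 Antitumor effect is assessed in tumor-bearing animals. Survival in the compound arm is compared with a vehicle-dosed control arm and expressed as their quotient.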

[1] = dose: 50.0 mg/kg/injection, schedule: Q01DX001 (ip), vehicle: saline
[2] = dose: 100.0 mg/kg/injection, schedule: Q01DX001 (ip), vehicle: saline
[3] = dose: 100.0 mg/kg/injection, schedule: Q04DX003 (ip), vehicle: saline
[4] = dose: 200.0 mg/kg/injection, schedule: Q01DX001 (ip), vehicle: saline
[5] = dose: 200.0 mg/kg/injection, schedule: Q04DX003 (ip), vehicle: saline
[6] = dose: 400.0 mg/kg/injection, schedule: Q01DX001 (ip), vehicle: saline
[7] = dose: 400.0 mg/kg/injection, schedule: Q04DX003 (ip), vehicle: saline
[8] = dose: 100.0 mg/kg/injection, schedule: Q04DX002 (ip), vehicle: saline with Tween-80
[9] = dose: 200.0 mg/kg/injection, schedule: Q04DX002 (ip), vehicle: saline with Tween-80
[10] = dose: 400.0 mg/kg/injection, schedule: Q04DX002 (ip), vehicle: saline with Tween-80
[11] = dose: 100.0 mg/kg/injection, schedule: Q04DX003 (ip), vehicle: Klucel (hydroxypropylcellulose) (HPC)
[12] = dose: 100.0 mg/kg/injection, schedule: Q04DX003 (ip), vehicle: saline with Tween-80
[13] = dose: 200.0 mg/kg/injection, schedule: Q04DX003 (ip), vehicle: Klucel (hydroxypropylcellulose) (HPC)
[14] = dose: 200.0 mg/kg/injection, schedule: Q04DX003 (ip), vehicle: saline with Tween-80
[15] = dose: 400.0 mg/kg/injection, schedule: Q04DX003 (ip), vehicle: Klucel (hydroxypropylcellulose) (HPC)
[16] = dose: 400.0 mg/kg/injection, schedule: Q04DX003 (ip), vehicle: saline with Tween-80
[17] = dose: 100.0 mg/kg/injection, schedule: Q01DX009 (ip), vehicle: Klucel (hydroxypropylcellulose) (HPC)
[18] = dose: 200.0 mg/kg/injection, schedule: Q01DX009 (ip), vehicle: Klucel (hydroxypropylcellulose) (HPC)
[19] = dose: 400.0 mg/kg/injection, schedule: Q01DX009 (ip), vehicle: Klucel (hydroxypropylcellulose) (HPC)
[20] = dose: 50.0 mg/kg/injection, schedule: Q01DX009 (ip), vehicle: Klucel (hydroxypropylcellulose) (HPC)
[21] = dose: 100.0 mg/kg/injection, schedule: Q01DX009 (ip), vehicle: saline with Tween-80
[22] = dose: 400.0 mg/kg/injection, schedule: Q01DX009 (ip), vehicle: saline with Tween-80
[23] = dose: 100.0 mg/kg/injection, schedule: Q04DX002 (ip), vehicle: Klucel (hydroxypropylcellulose) (HPC)
[24] = dose: 200.0 mg/kg/injection, schedule: Q04DX002 (ip), vehicle: Klucel (hydroxypropylcellulose) (HPC)
[25] = dose: 400.0 mg/kg/injection, schedule: Q04DX002 (ip), vehicle: Klucel (hydroxypropylcellulose) (HPC)
[26] = dose: 50.0 mg/kg/injection, schedule: Q04DX003 (ip), vehicle: Klucel (hydroxypropylcellulose) (HPC)

Measured: T/C

COc1ccc(C2NC(=O)NC2=O)cc1OC (stereo unspecified)
inactive: dose: 25.0 mg/kg/injection, schedule: Q01DX009 (ip), vehicle: saline sonified 98 % of control | [1] 102 % of control | dose: 50.0 mg/kg/injection, schedule: Q01DX009 (ip), vehicle: saline sonified 106 % of control | [2] 105 % of control | dose: 100.0 mg/kg/injection, schedule: Q01DX009 (ip), vehicle: saline sonified 101 % of control | [3] 95 % of control | [4] 105 % of control | [5] 103 % of control | [6] 105 % of control | [7] 97 % of control

S=P1(Oc2ccccc2)Nc2ccccc2N1c1ccccc1 (stereo unspecified)
inactive: [8] 92 % of control | [9] 98 % of control | [10] 95 % of control

O=C(O)c1cccnc1Cl
inactive: [1] 96 % of control | [2] 93 % of control | [11] 96 % of control | [12] 105 % of control | [4] 100 % of control | [13] 97 % of control | [14] 105 % of control | [6] 106 % of control | [15] 91 % of control | [16] 106 % of control

NC(=O)c1[nH]cnc1N
inactive: [2] 97 % of control | [4] 101 % of control | [6] 97 % of control

O=C1c2ccccc2Cc2cscc21
inactive: [12] 91 % of control | [14] 91 % of control

Cc1c(C)c(O)c2c(c1C)C(C)C(=O)OC2=O (stereo unspecified)
inactive: dose: 5.0 mg/kg/injection, schedule: Q01DX001 (ip), vehicle: saline 104 % of control | dose: 10.0 mg/kg/injection, schedule: Q01DX001 (ip), vehicle: saline 100 % of control | dose: 20.0 mg/kg/injection, schedule: Q01DX001 (ip), vehicle: saline 92 % of control | dose: 40.0 mg/kg/injection, schedule: Q01DX001 (ip), vehicle: saline 97 % of control

NC(=O)NC1CC1c1ccccc1 (stereo unspecified)
inactive: [2] 101 % of control | [4] 95 % of control | [6] 120 % of control

Nc1nc(N)c(N=Nc2ccc(S(=O)(=O)O)cc2)c(N)n1
inactive: [12] 102 % of control | [14] 102 % of control | [16] 104 % of control

COc1ccc2c3c(ccc2c1)NC(C(=O)O)CC3 (stereo unspecified)
inactive: [17] 97 % of control | [18] 96 % of control | [19] 96 % of control

c1cc2cc3c(cc2cc1CC1NCCc2cc4c(cc21)OCO4)OCO3 (stereo unspecified)
inactive: [20] 88 % of control | [17] 101 % of control | [11] 100 % of control | [13] 94 % of control

O=C(O)c1ccc2cc(O)ccc2c1
inactive: [3] 92 % of control | [5] 98 % of control | [7] 97 % of control

CCOC(=O)C(c1ccccc1)N(c1ccccc1)S(=O)(=O)c1ccc(C)cc1 (stereo unspecified)
inactive: dose: 100.0 mg/kg/injection, schedule: Q01DX001 (ip), vehicle: other 116 % of control | dose: 200.0 mg/kg/injection, schedule: Q01DX001 (ip), vehicle: other 98 % of control | dose: 400.0 mg/kg/injection, schedule: Q01DX001 (ip), vehicle: other 101 % of control

CCSC(=O)N1c2ccc(OC)cc2C=CC1C#N (stereo unspecified)
inactive: [21] 119 % of control | [12] 101 % of control | dose: 200.0 mg/kg/injection, schedule: Q01DX009 (ip), vehicle: saline with Tween-80 124 % of control | [14] 97 % of control | [22] 119 % of control | [16] 111 % of control

O=c1oc(-c2ccccc2NS(=O)(=O)c2ccccc2)nc2cc(Cl)ccc12
inactive: [17] 103 % of control | [18] 104 % of control | [19] 110 % of control

CCOc1ccc(NC(=O)Oc2cc(C)c(Cl)cc2C(C)C)cc1
inactive: [23] 90 % of control | [24] 110 % of control | [25] 100 % of control

CC1(C)OC2COC3(COC(C)(C)O3)C(OS(C)(=O)=O)C2O1 (stereo unspecified)
inactive: [12] 92 % of control | [14] 95 % of control | [16] 95 % of control

Cc1cc(C)c(O)c(N=O)c1.[Cu+2]
inactive: [1] 101 % of control | [2] 97 % of control | [4] 101 % of control | [6] 97 % of control

COc1n[nH]c(N)n1
inactive: [8] 122 % of control | [9] 98 % of control | [10] 105 % of control

Cc1cccc(NC(=O)C(Cl)(Cl)Cl)c1
inactive: [23] 109 % of control | [24] 98 % of control | [25] 98 % of control

CC(C)c1ncc([N+](=O)[O-])n1C
inactive: dose: 25.0 mg/kg/injection, schedule: Q04DX003 (ip), vehicle: Klucel (hydroxypropylcellulose) (HPC) 97 % of control | [26] 95 % of control | dose: 100.0 mg/kg/injection, schedule: Q01DX001 (ip), vehicle: carboxymethylcellulose (CMC) 103 % of control | [17] 102 % of control | [11] 97 % of control and 114 % of control | dose: 200.0 mg/kg/injection, schedule: Q01DX001 (ip), vehicle: carboxymethylcellulose (CMC) 101 % of control | [13] 104 % of control | dose: 400.0 mg/kg/injection, schedule: Q01DX001 (ip), vehicle: carboxymethylcellulose (CMC) 101 % of control | [19] 91 % of control | [15] 106 % of control

Nc1ccc2nc3c(N)ccc(N)c3nc2c1
inactive: [8] 97 % of control | [9] 105 % of control | [10] 105 % of control

Cn1c(=O)c2ccccc2c2cc([N+](=O)[O-])ccc21
inactive: [20] 93 % of control | [17] 97 % of control | [11] 90 % of control | [18] 97 % of control | [13] 94 % of control

CC(=O)c1ccc2c(c1)Nc1ccccc1S2
inactive: [26] 97 % of control | [17] 104 % of control and 102 % of control | [11] 101 % of control | [18] 106 % of control and 94 % of control | [13] 102 % of control | [19] 95 % of control and 91 % of control | [15] 91 % of control

Cn1c(=O)c2c(ncn2CCSc2nnnc3ccccc23)n(C)c1=O
inactive: [3] 98 % of control | [5] 93 % of control | [7] 94 % of control

O=c1[nH]cnc2ncn(Cc3ccccc3)c12
inactive: dose: 12.5 mg/kg/injection, schedule: Q04DX002 (ip), vehicle: Klucel (hydroxypropylcellulose) (HPC) 115 % of control | dose: 25.0 mg/kg/injection, schedule: Q04DX002 (ip), vehicle: Klucel (hydroxypropylcellulose) (HPC) 88 % of control | dose: 50.0 mg/kg/injection, schedule: Q04DX002 (ip), vehicle: Klucel (hydroxypropylcellulose) (HPC) 102 % of control

COc1ccccc1-n1c(O)c(N=Nc2ccc(Cl)cc2)c(=O)n(-c2ccc(Br)cc2)c1=S
inactive: dose: 100.0 mg/kg/injection, schedule: Q01DX001 (ip), vehicle: Klucel (hydroxypropylcellulose) (HPC) 89 % of control | dose: 200.0 mg/kg/injection, schedule: Q01DX001 (ip), vehicle: Klucel (hydroxypropylcellulose) (HPC) 92 % of control

Cc1cnc(SC(C)(C)C)c(C)c1
inactive: [2] 109 % of control | dose: 100.0 mg/kg/injection, schedule: Q01DX009 (ip), vehicle: saline 100 % of control | [23] 98 % of control and 100 % of control | [12] 108 % of control | [4] 107 % of control | dose: 200.0 mg/kg/injection, schedule: Q01DX009 (ip), vehicle: saline 94 % of control and 104 % of control | [24] 100 % of control and 106 % of control | [14] 102 % of control | [6] 109 % of control | dose: 400.0 mg/kg/injection, schedule: Q01DX009 (ip), vehicle: saline 100 % of control and 107 % of control | [25] 95 % of control and 97 % of control | [16] 91 % of control

CC(=O)c1cc(O)ccc1O
inactive: dose: 25.0 mg/kg/injection, schedule: Q01DX009 (ip), vehicle: saline with Tween-80 96 % of control | dose: 50.0 mg/kg/injection, schedule: Q01DX009 (ip), vehicle: saline with Tween-80 98 % of control | [21] 98 % of control and 86 % of control | [22] 91 % of control

CCOC(=O)c1ccc(NC(=O)Nc2ccc(F)c([N+](=O)[O-])c2)cc1
inactive: [17] 95 % of control | [18] 101 % of control | [19] 96 % of control

O=C(O)/C=C/c1ccc(O)c(O)c1
inactive: dose: 100.0 mg/kg/injection, schedule: Q04DX002 (ip), vehicle: gum acacia 92 % of control | dose: 200.0 mg/kg/injection, schedule: Q04DX002 (ip), vehicle: gum acacia 92 % of control | dose: 400.0 mg/kg/injection, schedule: Q04DX002 (ip), vehicle: gum acacia 95 % of control
